Source: patent publication US11732259B2, “Peptide oligonucleotide conjugates” (Sarepta Therapeutics, Inc., priority 2011, dated 2023)
{EG3} = triethylene glycol 5' cap structure on the morpholino oligomer

Columns and labels:
dystrophin mRNA exon 23 = test: Exon 23 skipping in MDX mice, end-point PCR on muscle RNA
Method: MDX mice were dosed once (50 mg/kg) by tail vein injection with one of the following conjugates:
One week post-injection, the MDX mice were sacrificed and RNA was extracted from various muscle tissues. End-point PCR was used to determine the relative abundance of dystrophin mRNA containing exon 23 and mRNA lacking exon 23 due to antisense-induced exon skipping. Percent exon 23 skipping is a measure of antisense activity in vivo.

[1] = system: exon 23 of the dystrophin gene; conditions: in vivo; cited from earlier work
[2] = assay type: in vivo, mouse
Method: Mice were treated with the conjugates described in Example 30, and KIM-1 levels, BUN levels and survival rate were determined according to the general procedures described in Example 32 below and known in the art. […]. The day of dosing on the study was designated as Study Day 1. Conjugate was administered via tail vein as a slow push bolus (˜5 seconds). All animals were dosed over two days. Groups 1-8 were dosed on the first day and Groups 9-16 were dosed on the second day. Treatment Groups (TG) 13-16 were dosed per the table above. […] The first 2 TG of each conjugate were dosed per the table above. If all animals in 100 mg/kg group died then the remaining TGs of that test article would not be dosed and the study would end. If at least one animal survived 2 hours post-dose in the 100 mg/kg group, then the 150 mg/kg group was dosed. If all animals in the 150 mg/kg group died then the remaining TGs of that test article would not be dosed and the study would end. […]
Any animal showing signs of distress, particularly if death appeared imminent was humanely euthanized according to Numira Biosciences Standard Operating Procedures. Body weights were recorded on the day after arrival, the day of dosing, and the day of necropsy. Detailed clinical observations were conducted and recorded at 0 minutes, 15 minutes, and 2 hours post-dose to assess tolerability of injections.

KIM-1 = assay type: in vivo, mouse; conditions: Example 32, FIG. 10; C57/BL6 mice, single i.v. tail vein injection, kidney qRT-PCR vs GAPDH
Method: Mice were treated with the conjugates described in Example 30, and KIM-1 levels, BUN levels and survival rate were determined according to the general procedures described in Example 32 below and known in the art. […]. The right and left kidneys were collected. Tissues were collected within minutes or less of euthanasia. All instruments and tools used were changed between treatment groups. All tissues were flash frozen and stored at <−70° C. as soon as possible after collection.
Kidney injury marker data was obtained as follows. RNA from mouse kidney tissue was purified using Quick Gene Mini80 Tissue Kit SII (Fuji Film). Briefly, approximately 40 mg of tissue was added to 0.5 ml lysis buffer (5 μl […] in 0.5 ml lysis buffer) in a MagnaLyser Green Bead vial (Roche) and homogenized using MagNA Lyser (Roche) with 2 sets of 3×3800 RPM and 3 sets of 1×6500 RPM.
Samples were cooled on ice 3-4 minutes between each low speed set and between each higher speed run. Homogenates were centrifuged 5 minute at 400×g at room temperature. The homogenate was immediately processed for RNA purification according to the Quick Gene Mini80 protocol. […] Total RNA was quantitated with a NanoDrop 2000 spectrophotometer (Thermo Scientific). […]
Analysis was performed using ΔΔCt method. […] Fold change range calculated: 2^−(ΔΔCt+SD) to 2^−(ΔΔCt-SD). […]

RSV [3] = conditions: cultures of two human airway cell lines (Lai, Stein et al. 2008); cited from earlier work
RSV [4] = conditions: BALB/c mice, intranasal treatment before RSV inoculation, cited from earlier work

Substance: 5′-EG3-M23D-BX(RXRRBR)2 (GGCCAAACCTCGGCTTACCTGAAAT; all phosphorodiamidate morpholino (PMO), 5' {EG3}; morpholino, carrier peptide BX(RXRRBR)2 conjugated at 3' end) [AVI-5225, known peptide-morpholino oligomer conjugate used as comparator]
- Dose response of exon 23 skipping (dystrophin mRNA exon 23; one week post-treatment, AVI-5225 compared with the other conjugates): similar
- Activity in the MDX mouse model for DMD [1]: activity

Substance: 5′-EG3-M23D-G(R)6 [NG-11-0009]
- Doses at which all mice survived ([2]; Example 31, data not shown): up to 400 mg/kg
- KIM concentrations (KIM-1): lowest
- Percent exon 23 skipping, diaphragm (dystrophin mRNA exon 23; dosed once 50 mg/kg tail vein, one week post-injection, diaphragm (FIGS. 5B, 6B), amongst the arginine series): highest efficacy
- Percent exon 23 skipping, quadriceps (dystrophin mRNA exon 23; dosed once 50 mg/kg tail vein, one week post-injection, quadriceps (FIGS. 5A, 6A), amongst the arginine series): highest efficacy

Substance: 5′-EG3-M23D-G(R)8 [NG-11-0216]
- Survival rate ([2]; Example 31, FIG. 7B, compared with the XB linked conjugate / amongst the arginine polymers): least tolerated of the arginine polymers

Substance: TAATGGGATCCATTTTGTCCC (all phosphorodiamidate morpholino (PMO); peptide-conjugated morpholino (PPMO), peptide not given here) [RSV-AUG-2, peptide conjugated PMO (PPMO) targeting the translation start-site region of RSV L mRNA]
- Reduction of viral titers (RSV [3]): > 2.0 log10
- Reduction in viral titer in lung tissue (RSV [4]; day 5 postinfection): 1.2 log10
- Pulmonary inflammation (RSV [4]; day 7 postinfection): attenuated
